In US8936793B2, “Synthetic archaeal glycolipid adjuvants” (National Research Council of Canada, priority 2006, dated 2015):

What was measured:
[1] = test system: antigen-specific CD8+ T cell; assay: Antigen-specific CD8+ T cell activity in blood by tetramer assay; format: in vivo, C57BL/6J mice; conditions: glyco-archaeol/DPPG/chol (25/55/20, mol %); data not shown
Protocol: Mice vaccinated with synthetic archaeosomes containing an appropriate antigen were protected from infection (FIG. 13). […] The lower CD8^+ T cell response observed for this latter archaeosome previously appears to be in part due to the shorter period from first injection to assay in FIG. 7C. In this example (FIG. 13), the antigen-specific CD8^+ T cell activity was measured in blood by tetramer assay and found to be about 30% as high in the maltotriose-A group compared to the gentiotriose-A group (data not shown).

[2] = test system: Listeria monocytogenes (LM)-OVA construct; assay: Protection against LM-OVA challenge after vaccination, splenic CFU; format: in vivo; conditions: glyco-archaeol/DPPG/chol (25/55/20, mol %), FIG. 13
Protocol: FIG. 13 illustrates protection against LM-OVA challenge after vaccination with OVA-adjuvant combinations. C57BL/6J mice were immunized on day 0 and 21 with 15 ug OVA entrapped in various synthetic archaeosomes composed of the respective synthetic glyco-archaeol/DPPG/chol (25/55/20, mol %). At 8 weeks, mice were challenged with 10^4 intravenous dose of Listeria monocytogenes (LM)-OVA construct. Mice were euthanized 3 days later. Mean±SEM of splenic colony forming units (CFU) is shown for each group.

[3] = test system: antigen specific EG.7 targets; assay: CTL activity in splenocytes of immunized mice, Cr51-assay; format: in vivo, C57BL/6 mice; conditions: 15 μg OVA s.c. 0 and 3 weeks; spleens 7 weeks after first immunization
Protocol: To determine adjuvant activity, various synthetic archaeosomes with OVA entrapped (OVA-archaeosomes) were used to immunize female C57BL/6 mice on days 0 and 21 (6-8 weeks old on first injection). Injections were subcutaneous at the tail base with 0.1 ml PBS containing 15 μg OVA entrapped in 0.2-0.63 mg lipids. Blood samples were collected from the tail vein for anti-OVA IgG/IgM antibody titration done by ELISA (13). In some cases faecal extracts were assayed for IgA (and IgG) to assess mucosal responses following systemic immunizations. Fresh faeces (about 30 mg dry weight) were collected from 4 mice/group, and extracted by adding 0.5 ml of phosphate buffered saline (pH 7.0) containing 10% fetal calf serum and 0.1% sodium azide. Homogenized samples were centrifuged and Elisa measured anti OVA antibody in supernatants. Spleens were collected to determine CTL activity using the Cr^51-assay with specific and non-specific targets EG.7 and EL-4, respectively (14). In Elispot assays antigen-specific CD8^+ T cell activity was measured in splenic cells from immunized mice by determining the number of SIINFEKL stimulated IFN-γ-secreting cells per 5×10^5 splenic cells (15).

Macrophages J774A.1 = assay: Up-regulation of co-stimulatory molecule CD80 on APCs, flow cytometry; format: cell-based; conditions: 25 μg liposomes or archaeosomes 48 h; LPS 10 μg 24 h; anti-CD80-PE
Protocol: Macrophages J774A.1 were incubated for 48 h with 25 μg of archaeosomes prior to staining and analysis by flow cytometry (Table 13). […] Immuno-activity was clearly ascribed to the synthetic glyco-archaeal lipid.

| Molecule | antigen-specific CD8+ T cell activity in blood, % as high as the gentiotriose-A group [1] | protection from LM-OVA infection [2] | CTL adjuvant activity, FIG. 3 [3] | Mean fluorescence Intensity CD80 (Macrophages J774A.1) |
| --- | --- | --- | --- | --- |
| CC(C)CCC[C@@H](C)CCC[C@@H](C)CCC[C@@H](C)CCOC[C@H](CO[C@@H]1O[C@H](CO)[C@@H](O[C@H]2O[C@H](CO)[C@@H](O[C@H]3O[C@H](CO)[C@@H](O)[C@H](O)[C@H]3O)[C@H](O)[C@H]2O)[C@H](O)[C@H]1O)OCC[C@H](C)CCC[C@H](C)CCC[C@H](C)CCCC(C)C [maltotriose-A] | about 30% | striking protection | best adjuvant activity | – |
| Lipopolysaccharide | – | – | – | 33.2 |
